Reference: ChEMBL document CHEMBL4842368, “Berotralstat (BCX7353): Structure-Guided Design of a Potent, Selective, and Oral Plasma Kallikrein Inhibitor to Prevent Attacks of Hereditary Angioedema (HAE)” (J Med Chem, 2021)
Values after ≈ are worked out from the molar mass of the structure shown.

What was measured:
[1] = Cmax in rat at 10 mg/kg, po; assay type: ADME, organism-based; parameters: route oral, dose 10 mg/kg; conditions: in vivo
[2] = Plasma concentration in rat at 10 mg/kg, po after 24 hrs; assay type: ADME, organism-based
[3] = AUC in rat at 10 mg/kg, po after 24 hrs; assay type: ADME, organism-based; parameters: route oral, time 24 hrs, dose 10 mg/kg; conditions: in vivo
[4] = target: T1, Plasma kallikrein (Homo sapiens, UniProt P03952); experiment: Inhibition of purified human plasma kallikrein using H-D-Pro-Phe-Arg-pNA.2HCl as substrate measured after 3 mins by microplate reader analysis
T1 sequence (P03952 20-390 limits assumed): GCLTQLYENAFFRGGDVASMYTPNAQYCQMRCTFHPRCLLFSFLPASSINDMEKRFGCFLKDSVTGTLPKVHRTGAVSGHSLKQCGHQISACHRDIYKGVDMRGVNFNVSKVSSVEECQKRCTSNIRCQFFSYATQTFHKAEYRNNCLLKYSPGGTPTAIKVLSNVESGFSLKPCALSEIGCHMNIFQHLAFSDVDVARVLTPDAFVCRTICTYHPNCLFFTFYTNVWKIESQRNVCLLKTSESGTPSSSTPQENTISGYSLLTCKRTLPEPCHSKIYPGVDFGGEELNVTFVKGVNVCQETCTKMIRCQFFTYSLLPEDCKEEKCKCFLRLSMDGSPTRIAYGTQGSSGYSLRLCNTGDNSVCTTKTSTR
T1 sequence (P03952 391-638 limits assumed): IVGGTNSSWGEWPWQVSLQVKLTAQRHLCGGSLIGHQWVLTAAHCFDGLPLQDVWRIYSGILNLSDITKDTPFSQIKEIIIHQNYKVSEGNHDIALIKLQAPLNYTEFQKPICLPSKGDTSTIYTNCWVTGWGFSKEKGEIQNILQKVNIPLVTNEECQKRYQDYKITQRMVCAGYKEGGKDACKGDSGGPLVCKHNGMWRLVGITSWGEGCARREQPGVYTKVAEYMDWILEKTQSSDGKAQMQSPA

[5] = target: T1, Plasma kallikrein; experiment: Inhibition of endogenous human plasma kallikrein using Z-Phe-Arg-AMC.HCl as substrate measured after 5 mins by microplate reader analysis
[6] = target: Trypsin (Homo sapiens, UniProt P07477+P07478+P35030); experiment: Inhibition of human trypsin using Nalpha-Benzoyl-L-Arginine p-nitroaniline as substrate measured after 5 mins by plate reader analysis; assay type: protein assay
[7] = target: Prothrombin (Homo sapiens, UniProt P00734); experiment: Inhibition of human thrombin using Nalpha-Benzoyl-Phe-Val-Arg p-nitroaniline as substrate measured after 5 mins by plate reader analysis
[8] = target: Plasminogen (Homo sapiens, UniProt P00747); experiment: Inhibition of human plasmin using Z-Lys-SBzl as substrate measured immediately by plate reader analysis
Sequence of Plasminogen (P00747 97-580 limits assumed): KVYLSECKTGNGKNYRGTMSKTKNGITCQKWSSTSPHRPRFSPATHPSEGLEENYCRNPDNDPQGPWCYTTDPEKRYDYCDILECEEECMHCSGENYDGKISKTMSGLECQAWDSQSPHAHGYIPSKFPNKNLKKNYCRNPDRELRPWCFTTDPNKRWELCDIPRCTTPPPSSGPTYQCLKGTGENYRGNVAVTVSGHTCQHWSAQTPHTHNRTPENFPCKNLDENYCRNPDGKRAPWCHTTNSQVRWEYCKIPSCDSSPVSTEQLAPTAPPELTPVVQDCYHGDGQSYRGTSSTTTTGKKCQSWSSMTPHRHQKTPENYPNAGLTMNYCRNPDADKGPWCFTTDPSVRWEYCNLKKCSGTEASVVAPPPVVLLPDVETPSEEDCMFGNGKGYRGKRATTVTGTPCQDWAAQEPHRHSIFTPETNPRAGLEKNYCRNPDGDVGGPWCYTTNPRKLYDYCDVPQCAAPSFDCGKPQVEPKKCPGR
Sequence of Plasminogen (P00747 581-810 limits assumed): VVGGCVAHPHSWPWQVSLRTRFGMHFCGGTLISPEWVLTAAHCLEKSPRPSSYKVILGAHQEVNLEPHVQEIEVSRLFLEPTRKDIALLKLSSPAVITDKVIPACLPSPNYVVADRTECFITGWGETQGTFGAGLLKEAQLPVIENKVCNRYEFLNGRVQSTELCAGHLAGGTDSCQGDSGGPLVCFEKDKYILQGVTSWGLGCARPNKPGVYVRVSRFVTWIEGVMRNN

[9] = target: Tissue-type plasminogen activator (Homo sapiens, UniProt P00750); experiment: Inhibition of recombinant human tPA using H-D-Isoleucyl-L-prolyl-L-arginine p-nitroaniline dihydrochloride as substrate measured after 5 mins by plate reader analysis
Sequence of Tissue-type plasminogen activator (P00750 whole entry): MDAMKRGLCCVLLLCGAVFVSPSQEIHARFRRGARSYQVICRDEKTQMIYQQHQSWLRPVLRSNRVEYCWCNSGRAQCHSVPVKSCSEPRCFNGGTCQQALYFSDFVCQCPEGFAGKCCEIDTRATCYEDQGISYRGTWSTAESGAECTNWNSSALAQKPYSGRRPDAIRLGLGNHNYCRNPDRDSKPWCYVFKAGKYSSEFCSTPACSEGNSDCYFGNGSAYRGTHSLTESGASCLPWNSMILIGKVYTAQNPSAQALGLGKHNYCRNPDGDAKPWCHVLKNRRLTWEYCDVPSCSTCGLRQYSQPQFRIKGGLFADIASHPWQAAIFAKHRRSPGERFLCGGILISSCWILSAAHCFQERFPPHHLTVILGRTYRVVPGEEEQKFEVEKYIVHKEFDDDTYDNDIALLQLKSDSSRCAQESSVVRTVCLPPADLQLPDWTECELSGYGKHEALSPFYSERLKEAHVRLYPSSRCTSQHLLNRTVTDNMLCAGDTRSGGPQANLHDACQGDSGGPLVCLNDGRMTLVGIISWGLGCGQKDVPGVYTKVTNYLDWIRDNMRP

[10] = target: T2, Complement C1s subcomponent (Homo sapiens, UniProt P09871); experiment: Inhibition of human C1s using […] as substrate measured immediately by plate reader analysis
T2 sequence (P09871 whole entry): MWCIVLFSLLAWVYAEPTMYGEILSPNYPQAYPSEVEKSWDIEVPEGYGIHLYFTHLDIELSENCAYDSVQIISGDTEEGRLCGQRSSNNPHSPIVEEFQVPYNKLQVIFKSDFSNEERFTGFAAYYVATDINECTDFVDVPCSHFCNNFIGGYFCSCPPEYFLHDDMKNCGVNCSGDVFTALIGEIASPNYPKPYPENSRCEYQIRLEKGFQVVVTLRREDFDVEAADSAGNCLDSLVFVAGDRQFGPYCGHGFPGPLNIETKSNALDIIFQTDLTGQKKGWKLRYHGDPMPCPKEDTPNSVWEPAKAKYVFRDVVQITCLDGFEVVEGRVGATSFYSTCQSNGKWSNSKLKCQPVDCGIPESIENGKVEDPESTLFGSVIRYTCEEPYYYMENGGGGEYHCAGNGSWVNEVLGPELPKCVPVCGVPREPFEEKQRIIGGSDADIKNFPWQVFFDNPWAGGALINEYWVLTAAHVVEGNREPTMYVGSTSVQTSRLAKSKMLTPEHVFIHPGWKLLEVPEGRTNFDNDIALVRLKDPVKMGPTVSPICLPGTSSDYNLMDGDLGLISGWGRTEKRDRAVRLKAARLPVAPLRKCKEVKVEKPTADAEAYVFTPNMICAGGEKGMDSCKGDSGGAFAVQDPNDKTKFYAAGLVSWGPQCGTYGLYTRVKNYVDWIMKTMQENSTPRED

[11] = target: Coagulation factor X (Homo sapiens, UniProt P00742); experiment: Inhibition of human factor 10a using N-a-Benzyloxycarbonyl-D-arginyl-L-glycyl-L-arginine-pnitroaniline-dihydrochloride as substrate measured after 5 mins by plate reader analysis
Sequence of Coagulation factor X (P00742 41-179 limits assumed): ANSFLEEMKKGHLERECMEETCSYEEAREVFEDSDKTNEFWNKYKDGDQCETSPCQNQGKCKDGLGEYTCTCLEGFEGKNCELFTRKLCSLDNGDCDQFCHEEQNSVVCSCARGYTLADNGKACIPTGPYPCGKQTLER
Sequence of Coagulation factor X (P00742 235-488 limits assumed): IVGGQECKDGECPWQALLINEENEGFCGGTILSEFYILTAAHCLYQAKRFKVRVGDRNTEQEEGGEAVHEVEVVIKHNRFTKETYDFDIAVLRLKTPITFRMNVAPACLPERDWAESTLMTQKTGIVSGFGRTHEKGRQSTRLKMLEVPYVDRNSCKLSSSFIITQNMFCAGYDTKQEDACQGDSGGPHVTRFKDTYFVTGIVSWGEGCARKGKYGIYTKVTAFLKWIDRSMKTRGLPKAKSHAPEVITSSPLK

[12] = target: T3, Coagulation factor XII (Homo sapiens, UniProt P00748); experiment: Inhibition of human factor 12a using D-prolyl-L-phenylalanyl-L-arginine-p-nitroaniline as substrate measured after 5 mins by plate reader analysis
T3 sequence (P00748 whole entry): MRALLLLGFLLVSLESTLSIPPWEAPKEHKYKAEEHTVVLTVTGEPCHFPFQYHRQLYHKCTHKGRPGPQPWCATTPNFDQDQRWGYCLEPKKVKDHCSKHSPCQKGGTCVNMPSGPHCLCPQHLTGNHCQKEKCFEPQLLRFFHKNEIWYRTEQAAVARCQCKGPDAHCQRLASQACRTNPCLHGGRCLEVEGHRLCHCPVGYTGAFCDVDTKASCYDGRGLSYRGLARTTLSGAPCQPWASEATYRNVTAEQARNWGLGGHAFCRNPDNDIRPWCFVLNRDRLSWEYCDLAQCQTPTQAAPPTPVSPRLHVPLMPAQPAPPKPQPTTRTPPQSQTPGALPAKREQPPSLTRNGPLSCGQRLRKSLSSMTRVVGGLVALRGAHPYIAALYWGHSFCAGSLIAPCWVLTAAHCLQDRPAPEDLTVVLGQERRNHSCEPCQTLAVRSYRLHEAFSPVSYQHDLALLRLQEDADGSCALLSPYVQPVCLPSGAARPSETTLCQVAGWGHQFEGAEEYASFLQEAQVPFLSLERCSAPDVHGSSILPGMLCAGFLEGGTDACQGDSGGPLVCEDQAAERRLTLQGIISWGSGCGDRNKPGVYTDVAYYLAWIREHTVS

[13] = Half life in rat at 3 mg/kg, iv; assay type: ADME, organism-based; conditions: in vivo
[14] = Half life in rat at 30 mg/kg, po; assay type: ADME, organism-based; conditions: in vivo
[15] = Cmax in rat at 3 mg/kg, iv; assay type: ADME, organism-based; parameters: route intravenous, dose 3 mg/kg; conditions: in vivo
[16] = Cmax in rat at 30 mg/kg, po; assay type: ADME, organism-based; parameters: route oral, dose 30 mg/kg; conditions: in vivo
[17] = Tmax in rat at 30 mg/kg, po; assay type: ADME, organism-based; conditions: in vivo
[18] = Clearance in rat at 3 mg/kg, iv; assay type: ADME, organism-based; conditions: in vivo
[19] = Clearance in rat at 30 mg/kg, po; assay type: ADME, organism-based; conditions: in vivo
[20] = AUC(0 to 24 hrs) in rat at 3 mg/kg, iv; assay type: ADME, organism-based; parameters: time < 24 hr, route intravenous, dose 3 mg/kg; conditions: in vivo
[21] = AUC(0 to 24 hrs) in rat at 30 mg/kg, po; assay type: ADME, organism-based; parameters: time < 24 hr, route oral, dose 30 mg/kg; conditions: in vivo
[22] = AUC(0 to 96 hrs) in rat at 3 mg/kg, iv; assay type: ADME, organism-based; parameters: time < 96 hr, route intravenous, dose 3 mg/kg; conditions: in vivo
[23] = AUC(0 to 96 hrs) in rat at 30 mg/kg, po; assay type: ADME, organism-based; parameters: time < 96 hr, route oral, dose 30 mg/kg; conditions: in vivo
[24] = Oral bioavailability in rat at 30 mg/kg; assay type: ADME, organism-based; conditions: in vivo
[25] = Half life in monkey at 2.5 mg/kg, iv; assay type: ADME, organism-based, Macaca mulatta; conditions: rhesus monkey, in vivo
[26] = Half life in monkey at 25 mg/kg, po; assay type: ADME, organism-based, Macaca mulatta; conditions: rhesus monkey, in vivo
[27] = Cmax in monkey at 2.5 mg/kg, iv; assay type: ADME, organism-based, Macaca mulatta; parameters: route intravenous, dose 2.5 mg/kg; conditions: rhesus monkey, in vivo
[28] = Cmax in monkey at 25 mg/kg, po; assay type: ADME, organism-based, Macaca mulatta; parameters: route oral, dose 25 mg/kg; conditions: rhesus monkey, in vivo
[29] = Tmax in monkey at 25 mg/kg, po; assay type: ADME, organism-based, Macaca mulatta; conditions: rhesus monkey, in vivo
[30] = Clearance in monkey at 2.5 mg/kg, iv; assay type: ADME, organism-based, Macaca mulatta; conditions: rhesus monkey, in vivo
[31] = Clearance in monkey at 25 mg/kg, po; assay type: ADME, organism-based, Macaca mulatta; conditions: rhesus monkey, in vivo
[32] = AUC(0 to 24 hrs) in monkey at 2.5 mg/kg, iv; assay type: ADME, organism-based, Macaca mulatta; parameters: time < 24 hr, route intravenous, dose 2.5 mg/kg; conditions: rhesus monkey, in vivo
[33] = AUC(0 to 24 hrs) in monkey at 25 mg/kg, po; assay type: ADME, organism-based, Macaca mulatta; parameters: time < 24 hr, route oral, dose 25 mg/kg; conditions: rhesus monkey, in vivo
[34] = Oral bioavailability in monkey at 25 mg/kg; assay type: ADME, organism-based, Macaca mulatta; conditions: rhesus monkey, in vivo
[35] = Solubility of compound at pH 4; assay type: physicochemical; conditions: buffer
[36] = Solubility of compound at pH 7; assay type: physicochemical; conditions: buffer
[37] = organism: Homo sapiens; experiment: Selectivity index, ratio of IC50 for human trypsin to IC50 for human plasma kallikrein
[38] = organism: Homo sapiens; experiment: Selectivity index, ratio of IC50 for human thrombin to IC50 for human plasma kallikrein
[39] = organism: Homo sapiens; experiment: Selectivity index, ratio of IC50 for human plasmin to IC50 for human plasma kallikrein
[40] = organism: Homo sapiens; experiment: Selectivity index, ratio of IC50 for human tPA to IC50 for human plasma kallikrein
[41] = organism: Homo sapiens; experiment: Selectivity index, ratio of IC50 for human APC to IC50 for human plasma kallikrein
[42] = organism: Homo sapiens; experiment: Selectivity index, ratio of IC50 for human Cls to IC50 for human plasma kallikrein
[43] = organism: Homo sapiens; experiment: Selectivity index, ratio of IC50 for human FXa to IC50 for human plasma kallikrein
[44] = organism: Homo sapiens; experiment: Selectivity index, ratio of IC50 for human FX2a to IC50 for human plasma kallikrein
[45] = organism: Homo sapiens; experiment: Selectivity index, ratio of IC50 for human tissue kallikrein to IC50 for human plasma kallikrein

NCc1cccc(-n2nc(C(F)(F)F)cc2C(=O)Nc2cc(C(NCC3CC3)c3ccccc3)ccc2F)c1 (single isomer, unassigned; (-))
Cmax [1]: 133 ng/mL
concentration at 24 h [2]: 30 ng/mL
AUC at 24 h [3]: 1490 ng·h/mL

NCc1cccc(-n2nc(C(F)(F)F)cc2C(=O)Nc2ccc(C(OCC3CC3)c3ccccc3)cc2F)c1 (stereo not given)
IC50 [4]: 0.651 µM

NCc1cccc(-n2nc(C(F)(F)F)cc2C(=O)Nc2cccc(C(OCC3CC3)c3ccccc3)c2F)c1 (stereo not given)
IC50 [4]: 0.037 µM
IC50 [5]: > 1 µM

N#Cc1cccc([C@@H](NCC2CC2)c2ccc(F)c(NC(=O)c3cc(C(F)(F)F)nn3-c3cccc(CN)c3)c2)c1 (stereo in doubt) [BEROTRALSTAT]
Cmax [1]: 242 ng/mL
AUC at 24 h [3]: 2210 ng·h/mL
IC50 [6]: 11 µM
IC50 [7]: > 50 µM
IC50 [8]: 3.97 µM
IC50 [9]: > 50 µM
IC50 [10]: > 50 µM
IC50 [11]: > 50 µM
IC50 [12]: > 50 µM
half-life [13]: 10.1 h
half-life [14]: 18.5 h
Cmax [15]: 773 ng/mL
Cmax [16]: 475 ng/mL
Tmax [17]: 2 h
clearance [18]: 27 mL/min/kg
CL/F [19]: 81 mL/min/kg
AUC(0-t) at 24 h [20]: 1620 ng·h/mL
AUC(0-t) at 24 h [21]: 4780 ng·h/mL
AUC(0-t) at 96 h [22]: 1860 ng·h/mL
AUC(0-t) at 96 h [23]: 6180 ng·h/mL
bioavailability [24]: 33%
half-life [25]: 18.3 h
half-life [26]: 22.7 h
Cmax [27]: 673 ng/mL
Cmax [28]: 342 ng/mL
Tmax [29]: 4.7 h
clearance [30]: 30 mL/min/kg
CL/F [31]: 73 mL/min/kg
AUC(0-t) at 24 h [32]: 974 ng·h/mL
AUC(0-t) at 24 h [33]: 4150 ng·h/mL
bioavailability [34]: 45%
solubility [35]: 120 µg/mL (≈ 213 µM)
solubility [36]: 160 µg/mL (≈ 284 µM)

N#Cc1cccc([C@@H](NCC2CC2)c2ccc(F)c(NC(=O)c3cc(C(F)(F)F)nn3-c3cccc(CN)c3)c2)c1 (stereo in doubt)
Ratio IC50 [37]: 12500
Ratio IC50 [38]: > 56800
Ratio IC50 [39]: 4510
Ratio IC50 [40]: > 56800
Ratio IC50 [41]: > 34100
Ratio IC50 [42]: > 56800
Ratio IC50 [43]: > 56800
Ratio IC50 [44]: > 56800
Ratio IC50 [45]: > 34100

NCc1cccc(-n2nc(C(F)(F)F)cc2C(=O)Nc2cc(C(O)c3ccccc3)ccc2F)c1 (stereo not given)
IC50 [4]: 0.71 µM

NCc1cccc(-n2nc(C(F)(F)F)cc2C(=O)Nc2ccc(-c3ccc(S(N)(=O)=O)cc3)cc2F)c1
IC50 [4]: 0.395 µM
